Measured values as given in patent publication US9839642B2, “Beta-tetrazolyl-propionic acids as metallo-beta-lactamase inhibitors” (priority 2014, dated 2017).

What was measured:
[1] = test system: Klebsiella pneumoniae expressing VIM-1 (IHMA599644); assay: Antibiotic potentiation activity: synergistic concentration (MITC95) with imipenem, growth by OD600; format: cell-based; settings: 95% inhibition of bacterial growth, strain IHMA599644
In short: (§1)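 Colonies from overnight agar plates (35 °C) were suspended in saline and diluted 1:100 into 1.1× CAMHB. Inhibitor (final 200 μM to 0.195 μM) was combined with imipenem at 1 or 4 μg/ml, incubated 22–24 h at 35 °C, and absorbance read; MITC95 is the lowest inhibitor concentration giving 95% growth inhibition.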

[2] = test system: Serratia marcescens expressing IMP-1 (CL5741); assay: as above; format: cell-based; settings: 95% inhibition of bacterial growth, strain CL5741
In short: as §1

[3] = test system: Escherichia coli expressing NDM-1 (CLB30005); assay: as above; format: cell-based; settings: 95% inhibition of bacterial growth, strain CLB30005
In short: as §1

[4] = target: NDM-1 (Klebsiella pneumoniae, UniProt C7C422); assay: Enzyme activity: determination of IC50, fluorescence assay with CCF2-FA substrate; format: biochemical; settings: enzyme 1 pM, CCF2-FA 1.25 μM, 2 hours at 25° C.; read-out: NDM1 IC50
NDM-1, sequence (C7C422 29-270, looked up, species assumed): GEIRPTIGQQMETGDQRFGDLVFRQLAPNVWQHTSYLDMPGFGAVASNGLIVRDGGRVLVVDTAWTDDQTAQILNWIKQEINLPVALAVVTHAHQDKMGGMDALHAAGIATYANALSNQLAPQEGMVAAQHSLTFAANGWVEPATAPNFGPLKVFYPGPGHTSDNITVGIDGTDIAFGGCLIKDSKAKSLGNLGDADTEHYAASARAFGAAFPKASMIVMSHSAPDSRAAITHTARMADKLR
In short: (§2)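 Enzyme at 1 pM (NDM-1), 2 pM (IMP-1) or 30 pM (VIM-1) was incubated with inhibitor (20 μM to 0.00063 μM) and 1.25 μM CCF2-FA in 100 mM KH2PO4 pH 7, 0.005% Tween-20, 10 μM ZnSO4 for 2 hours at 25° C. Fluorescence was read at ex 405/em 460 nm; IC50 from 4-parameter fit.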

[5] = target: VIM-1 (Pseudomonas aeruginosa, UniProt A0A0F7KYQ8); assay: as above; format: biochemical; settings: enzyme 30 pM, CCF2-FA 1.25 μM, 2 hours at 25° C.; read-out: VIM1 IC50
In short: as §2

[6] = target: IMP-1 (Serratia marcescens, UniProt P52699); assay: as above; format: biochemical; settings: enzyme 2 pM, CCF2-FA 1.25 μM, 2 hours at 25° C.; read-out: IMP1 IC50
IMP-1, sequence (P52699 19-246, looked up, species assumed): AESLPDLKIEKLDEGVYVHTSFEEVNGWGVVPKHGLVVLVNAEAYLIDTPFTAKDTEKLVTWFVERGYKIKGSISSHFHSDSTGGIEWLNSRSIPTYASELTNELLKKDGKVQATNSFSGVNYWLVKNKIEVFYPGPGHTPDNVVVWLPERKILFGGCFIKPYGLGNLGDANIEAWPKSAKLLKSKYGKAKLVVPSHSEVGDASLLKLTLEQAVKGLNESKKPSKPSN
In short: as §2

| SMILES | VIM1 KP599644 MITC95 [1] [µM] | IMP1 SM5741 MITC95 [2] [µM] | NDM1 EC30005 MITC95 [3] [µM] | IC50 [4] [nM] | IC50 [5] [nM] | IC50 [6] [nM] |
| --- | --- | --- | --- | --- | --- | --- |
| CC(C)=CCCC(C(=O)O)[C@H](Cc1ccccc1)c1nnn[nH]1 (stereo in doubt) [Example 15, (2R)-6-methyl-2-[(1S)-2-phenyl-1-(1H-tetrazol-5-yl)ethyl]hept-5-enoic acid] | 200 | >200 | 15.6 | 380 | 120 | 4800 |
| CCCCC(C(=O)O)[C@@H](Cc1ccc(-c2ccc(S(C)(=O)=O)cc2)cc1)c1nn[nH]n1 (stereo in doubt) [Example 183, (2R)-2-[(1R)-2-[4′-(methylsulfonyl)biphenyl-4-yl]-1-(2H-tetrazol-5-yl)ethyl]hexanoic acid] | >200 | >200 | >200 | 660 | 700 | 200 |
| CC(C)CCC[C@H](C(=O)O)[C@H](Cc1ccccc1)c1nnn[nH]1 [Example 1, (S)-6-Methyl-2-((S)-2-phenyl-1-(1H-tetrazol-5-yl)ethyl)heptanoic acid] | >200 | 138 | 75 | 870 | > 20000 | 280 |
| CC(C)CCC[C@@H](C(=O)O)[C@H](Cc1ccccc1)c1nnn[nH]1 [Example 2, (R)-6-methyl-2-((S)-2-phenyl-1-(1H-tetrazol-5-yl)ethyl)heptanoic acid] | >200 | 100 | >200 | 5400 | 8200 | 68 |
| O=C(O)[C@@H](Cc1ccccc1)[C@H](Cc1ccccc1)c1nnn[nH]1 [Example 3, (2S,3S)-2-benzyl-4-phenyl-3-(1H-tetrazol-5-yl)butanoic acid] | >200 | 112.5 | 200 | 350 | 640 | 550 |
| CCC[C@H](C(=O)O)[C@H](Cc1ccccc1)c1nnn[nH]1 [Example 4, (S)-2-((S)-2-phenyl-1-(1H-tetrazol-5-yl)ethyl)pentanoic acid] | 50 | >200 | 9.4 | 49 | 14 | 380 |
| CCC[C@@H](C(=O)O)[C@H](Cc1ccccc1)c1nnn[nH]1 [Example 5, (R)-2-((S)-2-phenyl-1-(1H-tetrazol-5-yl)ethyl)pentanoic acid] | 200 | >200 | 62.5 | 230 | 61 | 1500 |
| O=C(O)[C@@H](CCCC(F)(F)F)[C@H](Cc1ccccc1)c1nnn[nH]1 [Example 6, (S)-6,6,6-trifluoro-2-((S)-2-phenyl-1-(1H-tetrazol-5-yl)ethyl)hexanoic acid] | >200 | 106.3 | 75 | 240 | 130 | 730 |
| CC(C)C[C@H](C(=O)O)[C@H](Cc1ccccc1)c1nnn[nH]1 [Example 7, (2S)-4-methyl-2-[(2S)-2-phenyl-1-(1H-tetrazol-5-yl)ethyl]pentanoic acid] | 37.5 | 62.5 | 18.8 | 19 | 3.3 | 52 |
| CC[C@H](C(=O)O)[C@H](Cc1ccccc1)c1nnn[nH]1 [Example 8, (2S,3S)-2-ethyl-4-phenyl-3-(1H-tetrazol-5-yl)butanoic acid] | 62.5 | 125 | 9.4 | 81 | 21 | 1800 |
